Reference: patent US20240033370A1, “ANTI-PD-L1 IMMUNOCONJUGATES, AND USES THEREOF” (BOLT BIOTHERAPEUTICS, INC., priority 2020, published 2024)

How the values were obtained:
human TLR7 = human TLR7 (Homo sapiens (Human), UniProt Q9NYK1); experiment: HEK293 NFKB reporter assay, human TLR7; type: cell-based; conditions: HEK293 reporter cells expressing human TLR7; read-out: HEK293 hTLR7 EC50
Experimental: (§1) Each compound was synthesized, purified, and characterized by mass spectrometry and shown to have the mass indicated. Additional experimental procedures are found in the Examples. Activity against HEK293 NFKB reporter cells expressing human TLR7 or human TLR8 was measured according to Example 202.
(§2) HEK293 reporter cells expressing human TLR7 or human TLR8 were purchased from Invivogen and vendor protocols were followed for cellular propagation and experimentation. Briefly, cells were grown to 80-85% confluence at 5% CO2 in DMEM supplemented with 10% FBS, Zeocin, and Blasticidin. Cells were then seeded in 96-well flat plates at 4×10^4 cells/well with substrate containing HEK detection medium and immunostimulatory molecules. Activity was measured using a plate reader at 620-655 nm wavelength.

human TLR8 = human TLR8 (Homo sapiens (Human), UniProt Q9NR97); experiment: HEK293 NFKB reporter assay, human TLR8; type: cell-based; conditions: HEK293 reporter cells expressing human TLR8; read-out: HEK293 hTLR8 EC50
Experimental: as §1, §2

Chain of human TLR7 (Q9NYK1 27-1049): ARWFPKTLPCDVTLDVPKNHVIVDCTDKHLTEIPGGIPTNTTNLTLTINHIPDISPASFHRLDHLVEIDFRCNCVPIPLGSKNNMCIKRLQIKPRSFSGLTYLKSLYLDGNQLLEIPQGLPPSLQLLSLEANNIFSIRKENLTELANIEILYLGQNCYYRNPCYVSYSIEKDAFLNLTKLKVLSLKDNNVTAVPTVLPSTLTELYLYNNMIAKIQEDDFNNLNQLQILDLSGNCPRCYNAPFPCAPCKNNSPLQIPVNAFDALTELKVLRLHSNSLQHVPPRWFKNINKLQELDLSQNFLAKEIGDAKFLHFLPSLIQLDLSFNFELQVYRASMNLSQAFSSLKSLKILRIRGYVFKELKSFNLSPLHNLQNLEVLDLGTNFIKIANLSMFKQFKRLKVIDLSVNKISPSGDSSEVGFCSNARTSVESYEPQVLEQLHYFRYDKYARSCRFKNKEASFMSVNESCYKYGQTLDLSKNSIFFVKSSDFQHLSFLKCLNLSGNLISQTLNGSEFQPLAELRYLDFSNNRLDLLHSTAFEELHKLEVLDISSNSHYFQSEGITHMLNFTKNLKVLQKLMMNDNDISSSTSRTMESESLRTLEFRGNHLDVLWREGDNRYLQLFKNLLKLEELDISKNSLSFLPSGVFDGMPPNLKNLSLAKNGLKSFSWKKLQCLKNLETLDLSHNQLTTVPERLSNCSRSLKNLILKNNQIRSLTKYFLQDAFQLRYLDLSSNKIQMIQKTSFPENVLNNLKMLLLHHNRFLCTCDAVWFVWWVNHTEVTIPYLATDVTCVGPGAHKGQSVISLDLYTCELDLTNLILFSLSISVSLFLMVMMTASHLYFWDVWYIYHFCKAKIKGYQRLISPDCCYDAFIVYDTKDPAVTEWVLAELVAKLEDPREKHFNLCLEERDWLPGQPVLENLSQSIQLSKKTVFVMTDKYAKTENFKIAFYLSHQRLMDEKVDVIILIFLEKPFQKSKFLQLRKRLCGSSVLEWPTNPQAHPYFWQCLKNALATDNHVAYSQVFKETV
Chain of human TLR8 (Q9NR97 27-1041): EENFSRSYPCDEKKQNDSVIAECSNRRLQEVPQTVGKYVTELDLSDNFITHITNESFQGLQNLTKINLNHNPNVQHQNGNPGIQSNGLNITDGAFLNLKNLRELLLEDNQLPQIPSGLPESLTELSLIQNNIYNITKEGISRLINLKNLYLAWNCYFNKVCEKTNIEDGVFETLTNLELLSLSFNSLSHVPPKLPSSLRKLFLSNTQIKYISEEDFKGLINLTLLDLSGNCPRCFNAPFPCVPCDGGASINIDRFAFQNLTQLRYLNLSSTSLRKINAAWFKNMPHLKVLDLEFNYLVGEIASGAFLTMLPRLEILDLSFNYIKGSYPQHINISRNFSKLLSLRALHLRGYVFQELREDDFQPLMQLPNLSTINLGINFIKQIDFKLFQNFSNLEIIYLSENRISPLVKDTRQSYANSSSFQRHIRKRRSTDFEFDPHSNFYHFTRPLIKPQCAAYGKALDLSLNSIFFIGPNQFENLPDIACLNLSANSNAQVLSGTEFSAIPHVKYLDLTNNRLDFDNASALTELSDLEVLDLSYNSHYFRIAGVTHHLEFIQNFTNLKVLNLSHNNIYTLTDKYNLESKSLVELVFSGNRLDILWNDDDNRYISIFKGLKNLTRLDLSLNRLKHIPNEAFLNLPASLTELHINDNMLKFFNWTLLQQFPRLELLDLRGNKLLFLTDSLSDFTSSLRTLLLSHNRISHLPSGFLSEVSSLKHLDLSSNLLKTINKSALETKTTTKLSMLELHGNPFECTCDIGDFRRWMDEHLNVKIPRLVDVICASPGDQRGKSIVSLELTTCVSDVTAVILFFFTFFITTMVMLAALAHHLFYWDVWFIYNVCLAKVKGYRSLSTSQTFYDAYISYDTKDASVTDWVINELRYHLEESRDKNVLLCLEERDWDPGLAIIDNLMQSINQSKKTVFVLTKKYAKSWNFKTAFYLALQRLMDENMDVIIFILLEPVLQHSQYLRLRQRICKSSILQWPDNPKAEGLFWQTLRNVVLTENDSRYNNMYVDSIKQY

Row | Compound | EC50 (human TLR7) [µM] | EC50 (human TLR8) [µM]
1 | CCCN(OCC1COC(=O)N1)C(=O)C1=Cc2ccc(-c3cnc(CN)nc3)cc2N=C(N)C1 (centres unmarked) [CycBz-46] | 9 | –
2 | CCCN(OCCO)C(=O)C1=Cc2ccc(-c3cncc(S(=O)(=O)N4CC(CN)C4)c3)cc2N=C(N)C1 [CycBz-43] | 9 | –
3 | CCCN(CCCO)C(=O)C1=Cc2ccc(-c3cccc(S(=O)(=O)N4CC(CN)C4)c3)cc2N=C(N)C1 [CycBz-63] | 9 | 3.61
4 | CCCN(OCC)C(=O)C1=Cc2ccc(-c3cccc(S(=O)(=O)N4CC(CNC(=O)C5CCNCC5)C4)c3)cc2N=C(N)C1 [CycBz-51] | 9 | 4.19
5 | CCCN(CC1CNC(=O)O1)C(=O)C1=Cc2ccc(-c3cnc(CN)nc3)cc2N=C(N)C1 (centres unmarked) [CycBz-25] | 9 | –
6 | CCCN(OCC)C(=O)C1=Cc2ccc(-c3cc(CN)ncn3)cc2N=C(N)C1 [CycBz-48] | 9 | 2.16
7 | CCCN(OCC)C(=O)C1=Cc2ccc(-c3ccc(C(=O)OC)cc3)cc2N=C(N)C1 [CycBz-52] | 5.76 | 0.629
8 | CCCN(CCCO)C(=O)C1=Cc2ccc(-c3cnc(CN)nc3)cc2N=C(N)C1 [CycBz-26] | 9 | 9
9 | CCCN(OCCNC(=O)OC1CCC1)C(=O)C1=Cc2ccc(-c3cccc(S(=O)(=O)N4CC(CN)C4)c3)cc2N=C(N)C1 [CycBz-60] | 0.738 | 0.163
10 | CCCN(CCCO)C(=O)C1=Cc2ccc(-c3cccc(S(=O)(=O)N4CC(CNC(=O)OC(C)(C)C)C4)c3)cc2N=C(N)C1 [CycBz-58] | 7.15 | 0.374
11 | CCCN(OCC)C(=O)C1=Cc2ccc(-c3ccc(C(=O)N4CCC(N)C4)cc3)cc2N=C(N)C1 (centres unmarked) [CycBz-54] | 3.09 | 0.86
12 | CCCN(OCC(F)(F)F)C(=O)C1=Cc2ccc(-c3cccc(S(=O)(=O)N4CC(CN)C4)c3)cc2N=C(N)C1 [CycBz-49] | 3.93 | 0.461
13 | CCCN(C(=O)C1=Cc2ccc(-c3cnc(CN)nc3)cc2N=C(N)C1)[C@H]1C[C@H](NC(=O)OC2CCC2)C1 [CycBz-44] | 9 | –
14 | CCCN(OCC)C(=O)C1=Cc2ccc(-c3ccc(C(=O)N4CCC(NC(=O)OC(C)(C)C)C4)cc3)cc2N=C(N)C1 (centres unmarked) [CycBz-55] | 3.68 | 0.377
15 | CCCN(OCC)C(=O)C1=Cc2ccc(-c3ccc(C(=O)N4CCC[C@H]4C(=O)OC)cc3)cc2N=C(N)C1 [CycBz-59] | 0.047 | 0.006
16 | CCCN(CCCCO)C(=O)C1=Cc2ccc(-c3cccc(S(=O)(=O)N4CC(CN)C4)c3)cc2N=C(N)C1 [CycBz-62] | 9 | 4.66
17 | CCCN(CCCNC(=O)OC1CCC1)C(=O)C1=Cc2ccc(-c3cccc(S(=O)(=O)N4CC(CN)C4)c3)cc2N=C(N)C1 [CycBz-65] | 2.31 | 1.56
18 | CCCN(OCC)C(=O)C1=Cc2ccc(-c3ccc(C(=O)N4CCCC4)cc3)cc2N=C(N)C1 [CycBz-67] | 3.01 | 0.256
19 | CCCN(OCC)C(=O)C1=Cc2ccc(-c3ccc(C(=O)N[C@@H](C)C(=O)OC(C)(C)C)cc3)cc2N=C(N)C1 [CycBz-74] | 1.92 | 0.012
20 | CCCN(OCCNC(=O)NC1COC1)C(=O)C1=Cc2ccc(-c3cnc(CN)nc3)cc2N=C(N)C1 [CycBz-17] | 9 | 9
21 | CCCN(OCC)C(=O)C1=Cc2ccc(-c3ccc(C(=O)N[C@H](C)C(=O)OC(C)(C)C)cc3)cc2N=C(N)C1 [CycBz-75] | 4.75 | 0.086
22 | CCCN(OCC)C(=O)C1=Cc2ccc(-c3ccc(C(=O)N4CCC[C@@H]4C(=O)OC)cc3)cc2N=C(N)C1 [CycBz-64] | 3.43 | 0.097
23 | CCCN(CCCNC(N)=O)C(=O)C1=Cc2ccc(-c3cccc(S(=O)(=O)N4CC(CN)C4)c3)cc2N=C(N)C1 [CycBz-70] | 9 | 9
24 | CCCN(OCC)C(=O)C1=Cc2ccc(-c3ncc(CN)cn3)cc2N=C(N)C1 [CycBz-10] | 9 | –
25 | CCCN(CCO)C(=O)C1=Cc2ccc(-c3cccc(S(=O)(=O)N4CC(CN)C4)c3)cc2N=C(N)C1 [CycBz-68] | 9 | 4.91
26 | CCCN(CC1CNC(=O)CO1)C(=O)C1=Cc2ccc(-c3cnc(CN)nc3)cc2N=C(N)C1 (centres unmarked) [CycBz-42] | 9 | 9
